Structures can show the parent of a compound that is named as a salt.
molecular target: AaDOP2 (Aedes aegypti, UniProt H6D5H2); test: AaDOP2 antagonist screen of the LOPAC1280 library (HEK-CRELuc-Aadop2 cells, luminescence); assay type: cell-based; conditions: not given
Sequence (H6D5H2 1-476): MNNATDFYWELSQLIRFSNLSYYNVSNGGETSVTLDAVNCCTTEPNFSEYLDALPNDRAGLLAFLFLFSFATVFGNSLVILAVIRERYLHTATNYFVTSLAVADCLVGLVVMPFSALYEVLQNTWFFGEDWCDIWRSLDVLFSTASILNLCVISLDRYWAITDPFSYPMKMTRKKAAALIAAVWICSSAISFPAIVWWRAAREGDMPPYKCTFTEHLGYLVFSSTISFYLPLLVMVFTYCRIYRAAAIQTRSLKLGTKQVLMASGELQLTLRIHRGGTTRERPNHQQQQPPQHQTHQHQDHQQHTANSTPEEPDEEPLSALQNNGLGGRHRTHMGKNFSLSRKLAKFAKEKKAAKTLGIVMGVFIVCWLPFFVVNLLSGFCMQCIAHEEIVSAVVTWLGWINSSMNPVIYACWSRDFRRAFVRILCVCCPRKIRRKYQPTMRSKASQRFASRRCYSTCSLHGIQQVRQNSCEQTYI

SMILES | Compound effect (percent receptor signaling in presence of test compound, relative lux units relative to the SCH23390 control) | % of the SCH23390 effect (percent inhibition of receptor response relative to the SCH23390 control) [%]
Oc1ccccc1O [Compound 316, Pyrocatechol] | 101 | –
O=C(N[C@@H](Cc1ccccc1)C(=O)CCl)OCc1ccccc1 [Compound 317, Z-L-Phe chloromethyl ketone] | 124 | –
COc1cc2c(c(OC)c1OC)-c1ccc(OC)c(=O)cc1[C@@H](NC(C)=O)CC2 [Compound 319, Colchicine] | 131 | –
NC(N)=NOCC[C@H](N)C(=O)O.O=S(=O)(O)O [Compound 320, L-Canavanine sulfate] | 92 | –
NS(=O)(=O)c1cc2c(cc1Cl)NC(C1CC3C=CC1C3)NS2(=O)=O (stereo not shown) [Compound 321, Cyclothiazide] | 93 | –
OC[C@H]1O[C@@H](n2cnc3c(NC4CCCCC4)ncnc32)[C@H](O)[C@@H]1O [Compound 322, N6-Cyclohexyladenosine] | 100 | –
CC[C@@]1(O)C(=O)OCc2c1cc1n(c2=O)Cc2cc3ccccc3nc2-1 [Compound 323, (S)-(+)-Camptothecin] | 7 | 93
CCN(CC)C(C)C(=O)N1c2ccccc2Sc2ccccc21.Cl (stereo not drawn) [Compound 324, 10-(alpha-Diethylaminopropionyl)-phenothiazine hydrochloride] | 56 | –
CCCn1c(=O)c2[nH]c(C3CCCC3)nc2n(CCC)c1=O [Compound 327, 8-Cyclopentyl-1,3-dipropylxanthine] | 111 | –
Cn1c(=O)c2[nH]c(C3CCCC3)nc2n(C)c1=O [Compound 328, 8-Cyclopentyl-1,3-dimethylxanthine] | 93 | –
Cl.NCC(O)C1CCCCCCC1 (stereo not shown) [Compound 331, 2-Cyclooctyl-2-hydroxyethylamine hydrochloride] | 95 | –
NCCc1c[nH]c2ccc(C(N)=O)cc12.O=C(O)/C=C\C(=O)O [Compound 332, 5-Carboxamidotryptamine maleate] | 119 | –
O=C(O)c1cc(O)c2ccc(Cl)cc2n1 [Compound 333, 7-Chlorokynurenic acid] | 79 | –
CCNC(=O)[C@H]1O[C@@H](n2cnc3c(N)nc(NCCc4ccc(CCC(=O)O)cc4)nc32)[C@H](O)[C@@H]1O.Cl [Compound 337, CGS-21680 hydrochloride] | 112 | –
OC[C@H]1O[C@@H](n2cnc3c(NC4CCCC4)nc(Cl)nc32)[C@H](O)[C@@H]1O [Compound 338, 2-Chloro-N6-cyclopentyladenosine] | 92 | –
Cl.N=C(N)NC(=N)Nc1cccc(Cl)c1 [Compound 339, 1-(m-Chlorophenyl)-biguanide hydrochloride] | 83 | –
Nc1nc(Cl)nc2c1ncn2[C@@H]1O[C@H](COP(=O)([O-])OP(=O)([O-])OP(=O)([O-])[O-])[C@@H](O)[C@H]1O.[Na+].[Na+].[Na+].[Na+] [Compound 340, 2-Chloroadenosine triphosphate tetrasodium] | 102 | –
Oc1cc2c(cc1O)CN(C(=S)NCCc1ccc(Cl)cc1)CCC2 [Compound 342, Capsazepine] | 69 | –
CN1C(=O)CCS(=O)(=O)C1c1ccc(Cl)cc1 (stereo not shown) [Compound 343, Chlormezanone] | 93 | –
Cn1c(=O)c2c(nc(C=Cc3cccc(Cl)c3)n2C)n(C)c1=O [Compound 344, 8-(3-Chlorostyryl)caffeine] | 91 | –

SMILES | Compound effect (percent receptor signaling in presence of test compound, relative lux units relative to the SCH23390 control) | % of the SCH23390 effect (percent inhibition of receptor response relative to the SCH23390 control) [%]
Nc1nc2ccc(Cl)cc2c2nc(-c3ccco3)nn12 [Compound 345, CGS-15943] | 117 | –
O=C[C@H](Cl)[C@@H](O)[C@H](O)[C@H](O)CO [Compound 346, 2-Chloro-2-deoxy-D-glucose] | 114 | –
CN1C2CCC1CC(OC(c1ccccc1)c1ccc(Cl)cc1)C2.Cl (stereo not drawn) [Compound 347, 4'-Chloro-3-alpha-(diphenylmethoxy)tropane hydrochloride] | 15 | 85
c1ccc(C2CC2)c(OCC2=NCCN2)c1 [Compound 348, Cirazoline hydrochloride] | 74 | –
N[C@H](C(=O)O)[C@H]1C[C@@H]1C(=O)O [Compound 350, (2S,1'S,2'S)-2-(carboxycyclopropyl)glycine] | 97 | –
O=C(c1ccc2c(c1)OCCO2)N1CCCCC1 [Compound 352, CX 546] | 97 | –
CNC(=O)[C@H]1O[C@@H](n2cnc3c(NCc4cccc(I)c4)nc(Cl)nc32)[C@H](O)[C@@H]1O [Compound 353, Chloro-IB-MECA] | 120 | –
O=[N+]([O-])c1cc2nc(O)c(O)nc2cc1[N+](=O)[O-] [Compound 355, DNQX] | 100 | –
C[C@@H]1O[C@@H](O[C@H]2C[C@@H](O)[C@]3(CO)[C@H]4[C@H](O)C[C@]5(C)[C@@H]([C@@H]6COC(=O)C6)CC[C@]5(O)[C@@H]4CC[C@]3(O)C2)[C@H](O)[C@H](O)[C@H]1O [Compound 356, Dihydroouabain] | 56 | –
CC(CCc1ccc(O)cc1)NCCc1ccc(O)c(O)c1 (stereo not shown) [Compound 357, Dobutamine hydrochloride] | 98 | –
CC(C)[C@H]1CN[C@H](C(=O)O)[C@H]1CC(=O)O [Compound 358, Dihydrokainic acid] | 94 | –
C[N+](C)(C)CCCCCCCCCC[N+](C)(C)C.[Br-].[Br-] [Compound 359, Decamethonium dibromide] | 98 | –
Nc1ncnc2c1ncn2[C@@H]1O[C@H](COP(=O)(O)OP(=O)(O)OP(=O)(O)OP(=O)(O)OC[C@H]2O[C@@H](n3cnc4c(N)ncnc43)[C@H](O)[C@@H]2O)[C@@H](O)[C@H]1O [Compound 360, P1,P4-Di(adenosine-5')tetraphosphate triammonium] | 75 | –
N=C(N)N1CCc2ccccc2C1 [Compound 361, Debrisoquin sulfate] | 86 | –
Cc1cn([C@H]2C=C[C@@H](CO)O2)c(=O)[nH]c1=O [Compound 362, 2',3'-didehydro-3'-deoxythymidine] | 99 | –
O=C(CCCN1CC=C(n2c(=O)[nH]c3ccccc32)CC1)c1ccc(F)cc1 [Compound 363, Droperidol] | 58 | –
COC(=O)[C@@H](N)Cc1ccc(O)c(O)c1.Cl [Compound 364, L-3,4-Dihydroxyphenylalanine methyl ester hydrochloride] | 90 | –
OC[C@H]1NC[C@@H](O)[C@@H]1O [Compound 365, 1,4-Dideoxy-1,4-imino-D-arabinitol] | 103 | –
O=[N+]([O-])c1ccc(O[C@@H]2O[C@H](CO)[C@@H](O)[C@H](O)[C@H]2F)c([N+](=O)[O-])c1 [Compound 366, 2,4-Dinitrophenyl 2-fluoro-2-deoxy-beta-D-glucopyranoside] | 75 | –

same assay, conditions: 10 µM compound, 300 nM dopamine, 2 hr; hit = compound effect <20

SMILES | Compound effect (percent receptor signaling in presence of test compound, relative lux units relative to the SCH23390 control) [%]
CN1CCN(c2nc3cc(C(F)(F)F)ccc3n3cccc23)CC1.O=C(O)/C=C\C(=O)O [Compound 330, CGS-12066A maleate] | 104
C[C@@](Cc1ccc(O)c(O)c1)(NN)C(=O)O [Compound 335, S-(-)-Carbidopa] | 112
CS(=O)(=O)O.Cn1cc(C(F)(F)F)nc1-c1ccc(OCC(O)CNCCOc2ccc(O)c(C(N)=O)c2)cc1 (stereo not shown) [Compound 349, CGP 20712A methanesulfonate] | 92
N#Cc1cc2nc([O-])c([O-])nc2cc1[N+](=O)[O-].[Na+].[Na+] [Compound 351, CNQX disodium] | 91
COc1cccc(OC)c1OCCNCC1COc2ccccc2O1.Cl (stereo not shown) [Compound 354, WB-4101 hydrochloride] | 101
